# Reference: US9493466B2, “Treatment of cancer with TOR kinase inhibitors” (Signal Pharmaceuticals, LLC, priority 2011, dated 2016)
# Like-named read-outs stand apart in the source and are kept apart here.
# How the values were obtained:
# GBM = experiment: Phase 1/2 study Part B: tumor response, GBM; assay type: in vivo, human; settings: 10 evaluable GBM patients
# Text: In Part B, subjects may start Compound 1 at the MTD and/or a lower dose level based on safety, PK and PD data from Part A. Approximately 150 subjects will be treated and evaluated for safety and preliminary antitumor activity after every two cycles of therapy. Tumor types include non-small cell lung cancer (NSCLC), glioblastoma multiforme (GBM), hepatocellular carcinoma (HCC), gastrointestinal neuroendocrine tumor of non-pancreatic origin (NET), diffuse large B-cell lymphoma (DLBCL), multiple myeloma (MM), and hormone receptor positive breast cancer (HRPBC). Up to 20 subjects will be enrolled in each tumor type.
# Subjects will be evaluated for efficacy every 2 cycles through cycle 6 and every 3 cycles thereafter. The primary efficacy variable is response. Tumor assessments, including imaging (CT, MRI and/or PET) of the chest and abdomen and other sites as appropriate, will be performed during Screening. Subjects with brain lesions will also have brain scans at Screening and during follow-up tumor assessments. […] Subjects will be evaluated for tumor response on completion of Cycle 2, 4, 6, and so on. […]
# For Part B, efficacy variables to be analyzed include tumor response at the end of treatment, the proportion of subject alive and progression-free, and duration of response. […]
# NCI-H2030 = experiment: Cell viability assay for NSCLC lines; assay type: cell-based, human; settings: NCI-H2030, 3 days
# Procedure: (§1) Cell Viability Assay for NSCLC Lines. Cell viability was assessed using the Cell Titer-Glo Luminescent Cell Viability from Promega. The assay is a homogenous method of determining the number of viable cells in culture based on quantitation of the adenosine triphosphate (ATP) present, an indicator of metabolically active cells. The homogenous assay procedure involves adding the single reagent (CellTiter-Glo Reagent) directly to cells cultured in serum-supplemented medium. Cells were plated into a 96-well flat bottom plate (Costar Catalog Number 33595) at densities that were previously optimized for each cell line. The cells were incubated overnight in 5% CO2 at 37° C. The following day, compound dilutions were prepared and all concentrations were assayed in triplicate. The cells were incubated with Compound 1 (0.03 μM, 0.1 μM, 0.3 μM, 1 μM, 3 μM, 10 μM and 30 μM for NSCLC cells) in 5% CO2 at 37° C. for 3 days. After a 3-day incubation period, 100 μL of CellTiter-Glo reagent was added to each well for 2 minutes with shaking and further incubated for 10 minutes (no shaking) at room temperature to stabilize the signal. The luminescence was measured on the VICTOR X2 multilabel plate reader. The percent growth inhibition was calculated using the DMSO control in the same plate (no compound) response as 100% cell growth. The average values from triplicates were plotted to obtain IC50 values using software XLfit from IDBS. The formula used for determining IC50 in XLfit was model number 205, which utilizes a 4 Parameter Logistic Model or Sigmoidal Dose-Response Model to calculate the IC50 values. All IC50 values are reported as an average from either two independent experiments or a single experiment.
# NCI-H838 = experiment: Cell viability assay for NSCLC lines; assay type: cell-based, human; settings: NCI-H838, 3 days
# Procedure: as §1
# NCI-H2228 = experiment: Cell viability assay for NSCLC lines; assay type: cell-based, human; settings: NCI-H2228, 3 days
# Procedure: as §1
# NCI-H2444 = experiment: Cell viability assay for NSCLC lines; assay type: cell-based, human; settings: NCI-H2444, 3 days
# Procedure: as §1
# Anbl 6 = experiment: Cell proliferation and viability assay for MM lines; assay type: cell-based; settings: Homo sapiens, 120 h, Anbl 6, 5 days, 7AAD FACS
# Procedure: Cell Proliferation and Viability Assay for MM Lines. Prior to use, cells were washed and maintained in medium for 5 days. Cells were seeded out at a density of 0.3×10^6 cells/mL in a 12-well plate and treated with Compound 1 or Compound 2 for 5 days. 7AAD detection fluorescence-activated cell sorting (FACS) flow cytometry was used in the analysis.
smiles,measurement,setting,value
"CO[C@H]1CC[C@H](N2C(=O)CNc3ncc(-c4ccc(C(C)(C)O)nc4)nc32)CC1 [Compound 1, 7-(6-(2-hydroxypropan-2-yl)pyridin-3-yl)-1-((1r,4r)-4-methoxycyclohexyl)-3,4-dihydropyrazino-[2,3-b]pyrazin-2(1H)-one]","clinical activity, defined as 6-month Progression-Free Survival",GBM,No signs of clinical activity
same,IC50,NCI-H2030,2230 nM
same,IC50,NCI-H838,390 nM
same,IC50,NCI-H2228,264 nM
same,IC50,NCI-H2444,778 nM
"CCN1C(=O)CNc2ncc(-c3ccc(-c4nc[nH]n4)nc3C)nc21 [Compound 2, 1-ethyl-7-(2-methyl-6-(1H-1,2,4-triazol-3-yl)pyridin-3-yl)-3,4-dihydropyrazino[2,3-b]pyrazin-2(1H)-one]",IC50,"Anbl 6; read-out: IC50, Proliferation",370 nM
same,IC50,"Anbl 6; read-out: IC50, Viability",780 nM
